Measurements published in ChEMBL document CHEMBL1201862, “PubChem BioAssay data set” (2004).
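Interpolation was linear, between the two tested concentrations surrounding the appropriate level; five concentrations were tested over 48 hours in 96-well plates. GI50: concentration for 50% inhibition of growth.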 Activity calls are given as the source filed them. Rule as the data show it: active = GI50 up to about 1.1 µM and inactive = higher.

Key:
Assay in all cases: DTP human tumour cell line panel, 48 h
MOLT-4 = system: MOLT-4
786-0 = system: 786-0
U-251 = system: U-251
SF-295 = system: SF-295
M14 = system: M14
SN12C = system: SN12C
M19-MEL = system: M19-MEL
RPMI-8226 = system: RPMI-8226
UACC-62 = system: UACC-62
SK-MEL-28 = system: SK-MEL-28
NCI-H522 = system: NCI-H522
OVCAR-4 = system: OVCAR-4
OVCAR-3 = system: OVCAR-3
HCT-15 = system: HCT-15
Malme-3M = system: Malme-3M
HOP-18 = system: HOP-18
HCC 2998 = system: HCC 2998
NCI-H460 = system: NCI-H460
NCI-H226 = system: NCI-H226
COLO 205 = system: COLO 205
KM12 = system: KM12
DMS-114 = system: DMS-114
A498 = system: A498
IGROV-1 = system: IGROV-1
TK-10 = system: TK-10
HL-60 = system: HL-60
CAKI-1 = system: CAKI-1
HCT-116 = system: HCT-116
SK-MEL-5 = system: SK-MEL-5
DLD-1 = system: DLD-1
SNB-78 = system: SNB-78
CCRF-CEM = system: CCRF-CEM
UO-31 = system: UO-31
OVCAR-5 = system: OVCAR-5
HOP-62 = system: HOP-62
HT-29 = system: HT-29
SK-OV-3 = system: SK-OV-3
SNB-75 = system: SNB-75
KM-20L2 = system: KM-20L2
SNB-19 = system: SNB-19
NCI-H23 = system: NCI-H23
SF-539 = system: SF-539
SK-MEL-2 = system: SK-MEL-2
LXFL 529 = system: LXFL 529
ACHN = system: ACHN
LOX IMVI = system: LOX IMVI
SW-620 = system: SW-620
OVCAR-8 = system: OVCAR-8
UACC-257 = system: UACC-257
K562 = system: K562
SF-268 = system: SF-268
RXF 393 = system: RXF 393
DMS-273 = system: DMS-273
A549 = system: A549
HOP-92 = system: HOP-92
EKVX = system: EKVX
MDA-MB-231 = system: MDA-MB-231
DU-145 = system: DU-145
NCI/ADR-RES = system: NCI/ADR-RES
PC-3 = system: PC-3
MCF7 = system: MCF7
Hs-578T = system: Hs-578T
MDA-N = system: MDA-N
SR = system: SR
T47D = system: T47D
BT-549 = system: BT-549
MDA-MB-435 = system: MDA-MB-435

Measured: GI50

COc1cccc(NC(=O)CSc2nnc(Cc3ccccc3)o2)c1
inactive: MOLT-4 > 100 µM | 786-0 > 100 µM | U-251 > 100 µM | SF-295 > 100 µM | M14 > 100 µM | SN12C > 100 µM | M19-MEL > 100 µM | RPMI-8226 > 100 µM | UACC-62 > 100 µM | SK-MEL-28 > 100 µM | NCI-H522 > 100 µM | OVCAR-4 > 100 µM | OVCAR-3 > 100 µM | Malme-3M > 100 µM | HOP-18 > 100 µM | HCC 2998 > 100 µM | NCI-H460 > 100 µM | NCI-H226 > 100 µM | COLO 205 > 100 µM | KM12 > 100 µM | DMS-114 > 100 µM | A498 > 100 µM | IGROV-1 > 100 µM | TK-10 > 100 µM | HL-60 54.3 µM | CAKI-1 > 100 µM | HCT-116 > 100 µM | SK-MEL-5 57 µM | DLD-1 > 100 µM | SNB-78 > 100 µM | CCRF-CEM > 100 µM | UO-31 > 100 µM | OVCAR-5 > 100 µM | HOP-62 > 100 µM | HT-29 > 100 µM | SK-OV-3 > 100 µM | SNB-75 51.8 µM | KM-20L2 > 100 µM | SNB-19 > 100 µM | NCI-H23 > 100 µM | SF-539 > 100 µM | SK-MEL-2 > 100 µM | LXFL 529 > 100 µM | ACHN 23.3 µM | LOX IMVI > 100 µM | SW-620 > 100 µM | OVCAR-8 > 100 µM | UACC-257 > 100 µM | K562 > 100 µM | SF-268 > 100 µM | RXF 393 > 100 µM | DMS-273 > 100 µM | A549 > 100 µM
> 100 µM: HCT-15

O=C(/C=C\c1cccc2ccccc12)c1ccc(Br)cc1
inactive: MOLT-4 31 µM | 786-0 19.2 µM | U-251 16.1 µM | SF-295 22.4 µM | M14 18.1 µM | SN12C 34.8 µM | M19-MEL 19 µM | RPMI-8226 14.8 µM | UACC-62 15.2 µM | SK-MEL-28 12.1 µM | NCI-H522 21 µM | OVCAR-4 16.4 µM | OVCAR-3 18.4 µM | Malme-3M 31.3 µM | HOP-18 19.2 µM | HCC 2998 17.5 µM | NCI-H460 18.4 µM | NCI-H226 50.7 µM | COLO 205 31.1 µM | KM12 15.1 µM | DMS-114 15 µM | A498 > 100 µM | IGROV-1 23.6 µM | TK-10 51.3 µM | HL-60 15 µM | CAKI-1 33 µM | HCT-116 16.7 µM | SK-MEL-5 19.7 µM | DLD-1 20.5 µM | HOP-92 36.5 µM | SNB-78 20.6 µM | CCRF-CEM 20.9 µM | UO-31 19.1 µM | OVCAR-5 18 µM | EKVX 24 µM | HOP-62 > 100 µM | HT-29 18.2 µM | SK-OV-3 30.7 µM | SNB-75 21.7 µM | KM-20L2 16.3 µM | SNB-19 25.7 µM | NCI-H23 34 µM | SF-539 22.3 µM | LXFL 529 18.1 µM | ACHN 17.4 µM | SW-620 12.1 µM | OVCAR-8 17.5 µM | UACC-257 22.3 µM | K562 18.1 µM | SF-268 23.7 µM | DMS-273 16.7 µM | A549 > 100 µM
17.7 µM: HCT-15

COc1ccc(Nc2c(C#N)c3n(c4ccccc24)c2ccccc2[n+]3C)cc1OC
1.88 µM: HCT-15
inactive: MDA-MB-231 1.73 µM | DU-145 2.81 µM | MOLT-4 1.68 µM | NCI/ADR-RES 2.71 µM | 786-0 2.12 µM | U-251 2.7 µM | PC-3 2.33 µM | SF-295 2.77 µM | M14 2.94 µM | SN12C 1.27 µM | RPMI-8226 1.98 µM | UACC-62 3.15 µM | SK-MEL-28 4.43 µM | NCI-H522 3.16 µM | OVCAR-4 4.68 µM | MCF7 1.99 µM | OVCAR-3 3.52 µM | Malme-3M 3.82 µM | HCC 2998 4.17 µM | NCI-H460 1.93 µM | NCI-H226 3.05 µM | COLO 205 2.19 µM | KM12 3.98 µM | A498 4.31 µM | IGROV-1 3.58 µM | TK-10 2.56 µM | HL-60 3.84 µM | CAKI-1 1.93 µM | HCT-116 1.61 µM | Hs-578T 2.86 µM | SK-MEL-5 3.49 µM | MDA-N 2.7 µM | SR 6.46 µM | HOP-92 9.44 µM | T47D 6.05 µM | CCRF-CEM > 100 µM | BT-549 7.33 µM | UO-31 1.3 µM | OVCAR-5 2.25 µM | EKVX 2.93 µM | MDA-MB-435 3.73 µM | HOP-62 3.24 µM | HT-29 3.13 µM | SK-OV-3 5.14 µM | SNB-75 3.43 µM | SNB-19 3.92 µM | NCI-H23 2.94 µM | SF-539 1.84 µM | SK-MEL-2 3.86 µM | ACHN 1.96 µM | LOX IMVI 1.9 µM | SW-620 2.44 µM | OVCAR-8 1.67 µM | UACC-257 3.78 µM | K562 2.33 µM | SF-268 1.76 µM | RXF 393 2.82 µM | A549 3.03 µM
